Measured values reported in patent US20240368135A1 (VERTEX PHARMACEUTICALS INCORPORATED, priority 2021, published 2024).
Where two headings read alike, the source gives them in different places.

Biological target: human NaV 1.8 (Homo sapiens, UniProt Q9Y5Y9)
Test: E-VIPR assay detecting and measuring NaV inhibition properties
Format: cell-based
Conditions: HEK cells expressing truncated human NaV 1.8
Text: Sodium ion channels are voltage-dependent proteins that can be activated by inducing membrane voltage changes by applying electric fields. The electrical stimulation instrument and methods of use, referred to as E-VIPR, are described in International Publication No. WO 2002/008748 A3 and C.-J. Huang et al. Characterization of voltage-gated sodium channel blockers by electrical stimulation and fluorescence detection of membrane potential, 24 Nature Biotech. 439-46 (2006), both of which are incorporated by reference in their entirety. The instrument comprises a microtiter plate handler, an optical system for exciting the coumarin dye while simultaneously recording the coumarin and oxonol emissions, a waveform generator, a current- or voltage-controlled amplifier, and parallel electrode pairs that are inserted into assay plate wells. Under integrated computer control, this instrument passes user-programmed electrical stimulus protocols to cells within the wells of the microtiter plate.
16-20 hours prior to running the assay on E-VIPR, HEK cells expressing a truncated form of human NaV 1.8 with full channel activity were seeded into microtiter 384-well plates, pre-coated with matrigel, at a density of 25,000 cells per well. 2.5-5% KIR2.1 Bacmam virus was added to the final cell suspension before seeding into cell plates. HEK cells were grown in Dulbecco's Modified Eagle's Medium (DMEM) supplemented with 10% FBS (Fetal Bovine Serum, qualified; Sigma #F4135), 1% NEAA (Non-Essential Amino Acids, Gibco #11140), 1% HEPES (Gibco #15630), 1% Pen-Strep (Penicillin-Streptomycin; Gibco #15140) and 5 μg/ml Blasticidin (Gibco #R210-01). Cells were expanded in vented cap cell culture flasks, with 90-95% humidity and 5% CO2.
Human Serum (HS, Millipore #S1P1-01KL, or Sigma SLBR5469V and SLBR5470V as a 50%/50% mixture, for 25% assay final concentration) • Bath 1 Buffer: • Sodium Chloride 160 mM (9.35 g/L), Potassium Chloride, 4.5 mM (0.335 g/L), Glucose 10 mM (1.8 g/L), Magnesium Chloride (Anhydrous) 1 mM (0.095 g/L), Calcium Chloride 2 mM (0.222 g/L), HEPES 10 mM (2.38 g/L) in water. • Na/TMA C1 Bath 1 Buffer: • Sodium Chloride 96 mM (5.61 g/L), Potassium Chloride 4.5 mM (0.335 g/L), Tetramethylammonium (TMA)-Cl 64 mM (7.01 g/L), Glucose 10 mM (1.8 g/L), Magnesium Chloride (Anhydrous) 1 mM (0.095 g/L), Calcium Chloride 2 mM (0.222 g/L) HEPES 10 mM (2.38 g/L) in water. • Hexyl Dye Solution (2× concentration): • Bath 1 Buffer containing 0.5% P-cyclodextrin (made fresh prior to each use, Sigma #C4767), 8 μM CC2-DMPE and 2 μM DiSBAC6(3). The solution was made by adding 10% Pluronic F127 stock equal to combined volumes of CC2-DMPE and DiSBAC6(3). The order of preparation was first mix Pluronic and CC2-DMPE, then add DiSBAC6(3), then while vortexing add Bath 1/p-Cyclodextrin.
Compound Loading Buffer (2× concentration): Na/TMA C1 Bath1 Buffer containing HS (omitted in experiments run in the absence of human serum (HS)) 50%, VABSC-1 1 mM, BSA 0.2 mg/ml (in Bath-1), KCl 9 mM, DMSO 0.625%.
1) To reach the final concentration in each well, 375 nL of each compound was pre-spotted (in neat DMSO) into polypropylene compound plates at 240× desired final concentration from an intermediate stock concentration of 0.075 mM, in an 11 point dose response, 3-fold dilution, resulting in a top dose of 300 nM final concentration in the cell plate. Vehicle control (neat DMSO), and positive control (an established NaV1.8 inhibitor, 25 μM final in assay in DMSO) were added manually to the outermost columns of each plate respectively. The compound plate was backfilled with 45 μL per well of Compound Loading Buffer resulting in a 240 fold dilution of compound following a 1:1 transfer of compound into the cell plate (see Step 6). Final DMSO concentration for all wells in the assay was 0.625% (0.75% DMSO was supplemented to the Compound Loading Buffer for a final DMSO concentration of 0.625%). […]

[1] = no human serum, read-out: IC50 in the E-VIPR Assay

human NaV 1.8, sequence (Q9Y5Y9 126-399 limits assumed): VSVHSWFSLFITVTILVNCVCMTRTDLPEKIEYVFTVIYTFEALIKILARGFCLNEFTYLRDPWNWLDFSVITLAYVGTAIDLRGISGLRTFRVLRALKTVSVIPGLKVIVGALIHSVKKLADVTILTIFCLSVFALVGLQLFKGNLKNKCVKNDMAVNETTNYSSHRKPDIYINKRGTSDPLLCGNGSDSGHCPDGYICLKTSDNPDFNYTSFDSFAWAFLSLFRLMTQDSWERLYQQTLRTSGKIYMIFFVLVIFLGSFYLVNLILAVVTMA
human NaV 1.8, sequence (Q9Y5Y9 660-890 limits assumed): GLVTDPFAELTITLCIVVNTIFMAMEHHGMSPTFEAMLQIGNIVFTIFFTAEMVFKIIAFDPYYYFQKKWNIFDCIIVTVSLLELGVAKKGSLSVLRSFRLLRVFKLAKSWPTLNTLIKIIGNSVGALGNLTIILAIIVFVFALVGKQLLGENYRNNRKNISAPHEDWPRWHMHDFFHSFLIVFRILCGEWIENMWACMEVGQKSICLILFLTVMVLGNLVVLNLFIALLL
human NaV 1.8, sequence (Q9Y5Y9 1148-1722 limits assumed): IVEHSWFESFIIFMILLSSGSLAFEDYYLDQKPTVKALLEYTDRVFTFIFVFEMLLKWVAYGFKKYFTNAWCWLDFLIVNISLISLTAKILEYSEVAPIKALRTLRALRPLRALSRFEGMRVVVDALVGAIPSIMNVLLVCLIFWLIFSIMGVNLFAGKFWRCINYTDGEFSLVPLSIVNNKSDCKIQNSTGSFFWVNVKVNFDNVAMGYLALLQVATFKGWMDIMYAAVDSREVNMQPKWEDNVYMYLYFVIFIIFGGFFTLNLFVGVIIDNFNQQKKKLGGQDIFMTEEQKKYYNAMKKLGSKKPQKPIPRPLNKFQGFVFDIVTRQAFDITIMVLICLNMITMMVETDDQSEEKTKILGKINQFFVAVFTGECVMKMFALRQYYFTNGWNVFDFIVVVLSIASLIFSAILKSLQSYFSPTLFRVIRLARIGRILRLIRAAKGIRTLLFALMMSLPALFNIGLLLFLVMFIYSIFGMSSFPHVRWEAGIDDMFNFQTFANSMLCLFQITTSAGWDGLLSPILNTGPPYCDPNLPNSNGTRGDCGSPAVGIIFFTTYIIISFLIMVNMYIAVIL

`C[C@@H]1CN(C)CC(=O)N1c1cc(NC(=O)[C@@H]2O[C@@](C)(C(F)(F)F)[C@@H](C)[C@H]2c2ccc(F)c(F)c2OC(F)F)ccn1` [Compound 517, (2R,3S,4S,5R)-3-[2-(difluoromethoxy)-3,4-difluoro-phenyl]-N-[2-[(2R)-2,4-dimethyl-6-oxo-piperazin-1-yl]-4-pyridyl]-4,5-dimethyl-5-(trifluoromethyl)tetrahydrofuran-2-carboxamide] showed an IC50 [1] of under 10 nM.
`COC[C@@H](O)Cc1cc(NC(=O)[C@@H]2O[C@@](C)(C(F)(F)F)[C@@H](C)[C@H]2c2ccc(F)c(F)c2OCCN2CCOCC2)ccn1` [Compound 596, (2R,3S,4S,5R)-3-(3,4-difluoro-2-(2-morpholinoethoxy)phenyl)-N-(2-((S)-2-hydroxy-3-methoxypropyl)pyridin-4-yl)-4,5-dimethyl-5-(trifluoromethyl)tetrahydrofuran-2-carboxamide] gave an IC50 [1] of 10 to 100 nM.
Compound `COc1c(C2C(C(=O)Nc3ccnc(C(O)CO)c3)OC(C)(C(F)(F)F)C2C)ccc(F)c1F` (single isomer, unassigned) [Compound 43, 3-(3,4-difluoro-2-methoxy-phenyl)-N-[2-(1,2-dihydroxyethyl)-4-pyridyl]-4,5-dimethyl-5-(trifluoromethyl)tetrahydrofuran-2-carboxamide] has an IC50 [1] of at least 1000 nM.
`COc1c([C@H]2[C@H](C(=O)Nc3ccnc(C(O)CN(C)C)c3)O[C@@](C)(C(F)(F)F)[C@H]2C)ccc(F)c1F` (stereo partly drawn) [Compound 378, (2R,3S,4S,5R)-3-(3,4-difluoro-2-methoxy-phenyl)-N-[2-[2-(dimethylamino)-1-hydroxy-ethyl]-4-pyridyl]-4,5-dimethyl-5-(trifluoromethyl)tetrahydrofuran-2-carboxamide] gave an IC50 [1] of under 10 nM.
In the case of `COc1c([C@H]2[C@H](C(=O)Nc3ccc(-n4cncn4)nc3)O[C@@](C)(C(F)(F)F)[C@H]2C)ccc(F)c1F` [Compound 402, (2R,3S,4S,5R)-N-(6-(1H-1,2,4-triazol-1-yl)pyridin-3-yl)-3-(3,4-difluoro-2-methoxyphenyl)-4,5-dimethyl-5-(trifluoromethyl)-tetrahydrofuran-2-carboxamide], the IC50 [1] is reported as 10 to 100 nM.
With `C[C@H]1[C@@H](c2ccc(F)c(F)c2O)[C@H](C(=O)Nc2ccnc(CO)c2)O[C@@]1(C)C(F)(F)F` [Compound 638, (2R,3S,4S,5R)-3-(3,4-difluoro-2-hydroxyphenyl)-N-(2-(hydroxymethyl)pyridin-4-yl)-4,5-dimethyl-5-(trifluoromethyl)tetrahydrofuran-2-carboxamide] the IC50 [1] was 10 to 100 nM.
For `C[C@H]1[C@@H](c2ccc(F)c(F)c2OCC2COC2)[C@H](C(=O)Nc2ccc(C(N)=O)nc2)O[C@@]1(C)C(F)(F)F` [Compound 580, 5-((2R,3S,4S,5R)-3-(3,4-difluoro-2-(oxetan-3-ylmethoxy)phenyl)-4,5-dimethyl-5-(trifluoromethyl)tetrahydrofuran-2-carboxamido)picolinamide], the IC50 [1] was under 10 nM.
`COc1c([C@H]2[C@H](C(=O)Nc3ccnc(N4CCC(N(C)C)C4=O)c3)O[C@@](C)(C(F)(F)F)[C@H]2C)ccc(F)c1F` (single isomer, unassigned) [Compound 507, rel-(2R*,3S*,4S*,5R*)-3-(3,4-difluoro-2-methoxyphenyl)-N-(2-(3-(dimethylamino)-2-oxopyrrolidin-1-yl)pyridin-4-yl)-4,5-dimethyl-5-(trifluoromethyl)tetrahydrofuran-2-carboxamide] showed an IC50 [1] of 10 to 100 nM.
`Cc1nocc1NC(=O)[C@@H]1O[C@@](C)(C(F)(F)F)[C@@H](C)[C@H]1c1ccc(F)c(F)c1OCCNC1COC1` [Compound 631, (2R,3S,4S,5R)-3-(3,4-difluoro-2-(2-(oxetan-3-ylamino)ethoxy)phenyl)-4,5-dimethyl-N-(3-methylisoxazol-4-yl)-5-(trifluoromethyl)tetrahydrofuran-2-carboxamide] gave an IC50 [1] of 10 to 100 nM.
Work on `CCOc1c(C2CC(C)(C(F)(F)F)OC2C(=O)Nc2ccn3c(OC)nnc3c2)ccc(F)c1F` (stereo not shown) [Compound 708] yielded an IC50 (in the presence of human serum (compound numbers followed by *), read-out: IC50 in the E-VIPR Assay, performed in the presence of human serum) of 100 to 1000 nM.
